{"source": "paper PMC8617627", "about": "“Novel DYRK1A Inhibitor Rescues Learning and Memory Deficits in a Mouse Model of Down Syndrome” (Pharmaceuticals, 2021)", "experiment_in_all_cases": "Kinase profile (33P ATP filter binding)", "format_in_all_cases": "biochemical", "key": {"ABL": {"molecular_target": "ABL (Homo sapiens, UniProt P00519)", "conditions": "read-out: Remaining protein kinase activity"}, "AMPK (hum)": {"molecular_target": "AMPK (hum) (Homo sapiens, UniProt Q13131)", "sequence (Q13131 whole entry)": "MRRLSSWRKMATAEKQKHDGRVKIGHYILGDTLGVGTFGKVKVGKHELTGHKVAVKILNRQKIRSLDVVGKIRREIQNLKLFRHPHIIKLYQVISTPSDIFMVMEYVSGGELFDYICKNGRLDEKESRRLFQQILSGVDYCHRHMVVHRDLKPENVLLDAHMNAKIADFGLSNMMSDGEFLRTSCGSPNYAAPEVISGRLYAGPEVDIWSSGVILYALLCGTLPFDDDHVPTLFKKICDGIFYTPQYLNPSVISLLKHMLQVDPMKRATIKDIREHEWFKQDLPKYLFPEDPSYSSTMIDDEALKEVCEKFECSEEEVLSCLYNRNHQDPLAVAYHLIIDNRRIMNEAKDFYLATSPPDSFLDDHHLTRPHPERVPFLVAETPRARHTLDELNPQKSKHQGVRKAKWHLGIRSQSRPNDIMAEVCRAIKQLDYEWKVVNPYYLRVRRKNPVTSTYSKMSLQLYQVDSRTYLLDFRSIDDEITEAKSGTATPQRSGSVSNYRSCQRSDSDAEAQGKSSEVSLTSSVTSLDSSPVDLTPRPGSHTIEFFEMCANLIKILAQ", "sequence (O43741 whole entry partner)": "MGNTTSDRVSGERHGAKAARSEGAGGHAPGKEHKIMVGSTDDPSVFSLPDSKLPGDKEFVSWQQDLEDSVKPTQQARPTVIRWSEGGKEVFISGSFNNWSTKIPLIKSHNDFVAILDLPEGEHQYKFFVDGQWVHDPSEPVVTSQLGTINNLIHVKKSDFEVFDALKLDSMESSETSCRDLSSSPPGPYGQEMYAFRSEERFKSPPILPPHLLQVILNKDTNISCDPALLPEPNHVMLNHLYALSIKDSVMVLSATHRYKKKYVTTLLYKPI", "sequence (P54619 whole entry partner)": "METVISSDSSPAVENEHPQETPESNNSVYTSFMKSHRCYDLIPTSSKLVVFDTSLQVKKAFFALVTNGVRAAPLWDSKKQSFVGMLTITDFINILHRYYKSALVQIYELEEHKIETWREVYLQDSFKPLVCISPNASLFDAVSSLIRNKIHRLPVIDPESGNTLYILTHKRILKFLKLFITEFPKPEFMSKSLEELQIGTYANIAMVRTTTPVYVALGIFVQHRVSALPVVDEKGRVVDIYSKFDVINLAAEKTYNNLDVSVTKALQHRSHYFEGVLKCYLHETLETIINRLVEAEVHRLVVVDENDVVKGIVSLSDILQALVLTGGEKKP", "conditions": "read-out: Remaining protein kinase activity"}, "Aurora A": {"molecular_target": "T1, Aurora A (Homo sapiens, UniProt O14965)", "T1 sequence (O14965 1-403)": "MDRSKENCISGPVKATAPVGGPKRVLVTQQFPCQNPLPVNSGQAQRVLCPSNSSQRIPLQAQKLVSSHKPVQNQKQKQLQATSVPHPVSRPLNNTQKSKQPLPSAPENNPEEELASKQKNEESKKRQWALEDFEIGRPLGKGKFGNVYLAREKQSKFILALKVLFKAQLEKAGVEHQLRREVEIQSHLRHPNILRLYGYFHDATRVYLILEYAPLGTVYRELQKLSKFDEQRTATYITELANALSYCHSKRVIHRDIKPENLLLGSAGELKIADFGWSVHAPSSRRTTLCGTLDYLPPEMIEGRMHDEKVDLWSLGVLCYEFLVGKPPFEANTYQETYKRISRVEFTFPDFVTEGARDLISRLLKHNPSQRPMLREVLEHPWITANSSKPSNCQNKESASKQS", "conditions": "for remaining activity at 1 µM / remaining activity at 100 µM: read-out: Remaining protein kinase activity"}, "CDK9-Cyclin T1": {"molecular_target": "CDK9-Cyclin T1 (Homo sapiens, UniProt P50750)", "sequence (P50750 whole entry)": "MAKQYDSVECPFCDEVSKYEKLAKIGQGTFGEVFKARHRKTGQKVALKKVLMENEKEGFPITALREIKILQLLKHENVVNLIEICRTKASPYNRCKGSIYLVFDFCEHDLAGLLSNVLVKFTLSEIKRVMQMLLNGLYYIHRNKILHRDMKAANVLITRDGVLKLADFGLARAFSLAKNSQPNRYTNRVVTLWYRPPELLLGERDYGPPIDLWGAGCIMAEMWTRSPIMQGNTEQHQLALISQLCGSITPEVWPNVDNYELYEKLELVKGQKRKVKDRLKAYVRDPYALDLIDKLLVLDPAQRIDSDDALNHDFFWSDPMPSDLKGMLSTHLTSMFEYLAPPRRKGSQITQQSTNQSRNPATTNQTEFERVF", "sequence (O60563 whole entry partner)": "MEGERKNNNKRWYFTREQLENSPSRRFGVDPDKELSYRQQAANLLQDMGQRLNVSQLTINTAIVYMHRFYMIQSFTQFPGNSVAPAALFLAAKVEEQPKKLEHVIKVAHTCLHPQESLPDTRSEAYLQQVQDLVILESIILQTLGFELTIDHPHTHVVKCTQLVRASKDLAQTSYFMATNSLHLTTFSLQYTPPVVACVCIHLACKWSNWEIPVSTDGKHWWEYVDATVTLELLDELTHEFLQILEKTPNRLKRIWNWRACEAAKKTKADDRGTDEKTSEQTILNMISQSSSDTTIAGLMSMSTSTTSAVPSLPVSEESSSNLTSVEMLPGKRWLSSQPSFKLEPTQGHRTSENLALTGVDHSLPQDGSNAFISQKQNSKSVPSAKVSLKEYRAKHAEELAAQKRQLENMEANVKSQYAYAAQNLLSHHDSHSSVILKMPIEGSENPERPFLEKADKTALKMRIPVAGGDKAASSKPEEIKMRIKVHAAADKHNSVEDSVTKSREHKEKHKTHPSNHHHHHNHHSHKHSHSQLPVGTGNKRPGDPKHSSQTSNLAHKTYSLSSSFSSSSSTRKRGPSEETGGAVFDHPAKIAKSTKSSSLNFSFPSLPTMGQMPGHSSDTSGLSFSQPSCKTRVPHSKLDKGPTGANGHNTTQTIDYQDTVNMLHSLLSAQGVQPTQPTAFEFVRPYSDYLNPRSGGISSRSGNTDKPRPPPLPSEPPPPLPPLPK", "conditions": "read-out: Remaining protein kinase activity"}, "MLK1": {"molecular_target": "MLK1 (Homo sapiens, UniProt P80192)", "conditions": "read-out: Remaining protein kinase activity"}, "NEK6": {"molecular_target": "NEK6 (Homo sapiens, UniProt Q9HC98)", "sequence (Q9HC98 whole entry)": "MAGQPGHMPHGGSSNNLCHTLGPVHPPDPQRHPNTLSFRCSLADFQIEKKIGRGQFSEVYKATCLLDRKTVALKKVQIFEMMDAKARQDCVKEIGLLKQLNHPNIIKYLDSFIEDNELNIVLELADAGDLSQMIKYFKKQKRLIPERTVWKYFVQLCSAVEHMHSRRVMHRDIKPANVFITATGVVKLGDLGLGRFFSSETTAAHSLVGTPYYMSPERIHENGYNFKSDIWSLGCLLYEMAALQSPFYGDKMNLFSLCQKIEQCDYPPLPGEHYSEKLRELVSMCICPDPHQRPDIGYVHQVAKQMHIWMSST", "conditions": "read-out: Remaining protein kinase activity"}, "PKBb": {"molecular_target": "PKBb (Homo sapiens, UniProt P31751)", "sequence (P31751 whole entry)": "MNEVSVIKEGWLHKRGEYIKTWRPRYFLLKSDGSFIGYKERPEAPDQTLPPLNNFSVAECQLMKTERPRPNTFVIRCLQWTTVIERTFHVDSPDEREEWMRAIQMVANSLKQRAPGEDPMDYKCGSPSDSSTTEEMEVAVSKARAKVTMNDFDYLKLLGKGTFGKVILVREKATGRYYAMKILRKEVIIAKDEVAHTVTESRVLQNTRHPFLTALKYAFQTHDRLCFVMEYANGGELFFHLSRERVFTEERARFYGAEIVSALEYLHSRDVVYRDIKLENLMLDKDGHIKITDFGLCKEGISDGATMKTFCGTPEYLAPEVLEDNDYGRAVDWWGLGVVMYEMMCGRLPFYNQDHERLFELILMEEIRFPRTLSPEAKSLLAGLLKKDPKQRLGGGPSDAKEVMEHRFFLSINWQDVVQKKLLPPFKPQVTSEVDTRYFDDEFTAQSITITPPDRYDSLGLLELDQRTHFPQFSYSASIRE", "conditions": "read-out: Remaining protein kinase activity"}, "SmMLCK": {"molecular_target": "SmMLCK (Homo sapiens, UniProt Q15746)", "sequence (Q15746 923-1914)": "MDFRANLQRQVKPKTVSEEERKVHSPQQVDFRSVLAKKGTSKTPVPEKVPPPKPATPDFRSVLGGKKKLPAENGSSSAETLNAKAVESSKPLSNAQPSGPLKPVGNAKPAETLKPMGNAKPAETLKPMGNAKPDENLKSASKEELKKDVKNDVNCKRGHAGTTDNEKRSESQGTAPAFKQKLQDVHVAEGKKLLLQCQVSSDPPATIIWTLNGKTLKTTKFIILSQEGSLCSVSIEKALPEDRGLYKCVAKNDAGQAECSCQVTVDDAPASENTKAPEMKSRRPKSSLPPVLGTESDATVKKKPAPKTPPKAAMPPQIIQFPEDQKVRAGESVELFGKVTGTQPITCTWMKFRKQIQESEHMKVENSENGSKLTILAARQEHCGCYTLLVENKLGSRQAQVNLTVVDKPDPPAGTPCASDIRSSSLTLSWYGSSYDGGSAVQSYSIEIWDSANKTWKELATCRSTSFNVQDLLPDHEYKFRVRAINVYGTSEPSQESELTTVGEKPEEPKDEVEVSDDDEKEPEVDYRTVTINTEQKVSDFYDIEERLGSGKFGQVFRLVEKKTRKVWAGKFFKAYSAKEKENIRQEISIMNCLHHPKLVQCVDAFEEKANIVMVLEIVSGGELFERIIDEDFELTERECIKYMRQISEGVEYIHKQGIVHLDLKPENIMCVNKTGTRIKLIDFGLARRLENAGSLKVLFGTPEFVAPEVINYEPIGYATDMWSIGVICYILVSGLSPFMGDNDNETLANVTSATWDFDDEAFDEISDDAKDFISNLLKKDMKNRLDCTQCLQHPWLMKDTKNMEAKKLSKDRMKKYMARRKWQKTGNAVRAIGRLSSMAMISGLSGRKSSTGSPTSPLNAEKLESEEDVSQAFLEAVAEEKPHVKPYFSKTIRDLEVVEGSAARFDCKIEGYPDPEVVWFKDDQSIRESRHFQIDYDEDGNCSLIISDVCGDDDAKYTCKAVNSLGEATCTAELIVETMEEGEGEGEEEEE", "conditions": "read-out: Remaining protein kinase activity"}, "TGFBR1": {"molecular_target": "T2, TGFBR1 (Homo sapiens, UniProt P36897)", "T2 sequence (P36897 34-503)": "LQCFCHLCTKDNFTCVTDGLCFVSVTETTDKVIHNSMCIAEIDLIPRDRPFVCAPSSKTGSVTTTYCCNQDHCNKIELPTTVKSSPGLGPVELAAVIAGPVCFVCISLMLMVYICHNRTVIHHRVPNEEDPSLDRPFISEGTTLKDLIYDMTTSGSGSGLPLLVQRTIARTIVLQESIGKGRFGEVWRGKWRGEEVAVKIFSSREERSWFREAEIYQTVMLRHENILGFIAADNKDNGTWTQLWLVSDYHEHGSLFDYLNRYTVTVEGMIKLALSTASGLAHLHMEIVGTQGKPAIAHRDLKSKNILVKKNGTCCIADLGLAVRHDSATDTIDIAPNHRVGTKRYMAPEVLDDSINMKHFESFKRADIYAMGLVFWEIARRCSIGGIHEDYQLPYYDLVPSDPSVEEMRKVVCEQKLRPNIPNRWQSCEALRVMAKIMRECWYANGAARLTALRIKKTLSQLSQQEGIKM", "conditions": "read-out: Remaining protein kinase activity"}, "p38d MAPK": {"molecular_target": "T3, p38d MAPK (Homo sapiens, UniProt O15264)", "T3 sequence (O15264 1-365)": "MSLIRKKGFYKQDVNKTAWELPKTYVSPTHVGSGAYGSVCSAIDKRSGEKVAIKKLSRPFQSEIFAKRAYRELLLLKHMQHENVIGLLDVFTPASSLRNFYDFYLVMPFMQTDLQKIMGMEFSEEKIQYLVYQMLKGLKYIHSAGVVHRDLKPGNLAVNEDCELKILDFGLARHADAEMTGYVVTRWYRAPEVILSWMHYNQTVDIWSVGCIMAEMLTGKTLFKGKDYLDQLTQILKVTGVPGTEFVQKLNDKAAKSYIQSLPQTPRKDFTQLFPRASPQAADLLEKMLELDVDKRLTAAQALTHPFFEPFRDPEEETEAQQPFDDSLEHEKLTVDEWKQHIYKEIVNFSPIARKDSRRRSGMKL", "conditions": "read-out: Remaining protein kinase activity"}}, "note": "Read-outs that look alike come from different tables or passages of the source."}
{"smiles": "COc1ccc2sc(-c3cncc(N)c3)nc2c1", "note": "[compound 1, 5-(5-Methoxybenzo[d]thiazol-2-yl)pyridin-3-amine]", "values": [{"measurement": "remaining activity at 1 µM", "setting": "ABL; ABL, 1 μM", "result": 108, "unit": "%"}, {"measurement": "remaining activity at 100 µM", "setting": "ABL; ABL, 100 μM", "result": 46, "unit": "%"}, {"measurement": "remaining activity at 1 µM", "setting": "AMPK (hum); AMPK (hum), 1 μM", "result": 107, "unit": "%"}, {"measurement": "remaining activity at 100 µM", "setting": "AMPK (hum); AMPK (hum), 100 μM", "result": 46, "unit": "%"}, {"measurement": "remaining activity at 1 µM", "setting": "Aurora A; Aurora A, 1 μM", "result": 132, "unit": "%"}, {"measurement": "remaining activity at 100 µM", "setting": "Aurora A; Aurora A, 100 μM", "result": 97, "unit": "%"}, {"measurement": "remaining activity at 1 µM", "setting": "CDK9-Cyclin T1; CDK9-Cyclin T1, 1 μM", "result": 113, "unit": "%"}, {"measurement": "remaining activity at 100 µM", "setting": "CDK9-Cyclin T1; CDK9-Cyclin T1, 100 μM", "result": 83, "unit": "%"}, {"measurement": "remaining activity at 1 µM", "setting": "MLK1; MLK1, 1 μM", "result": 106, "unit": "%"}, {"measurement": "remaining activity at 100 µM", "setting": "MLK1; MLK1, 100 μM", "result": 16, "unit": "%"}, {"measurement": "remaining activity at 1 µM", "setting": "NEK6; NEK6, 1 μM", "result": 106, "unit": "%"}, {"measurement": "remaining activity at 100 µM", "setting": "NEK6; NEK6, 100 μM", "result": 115, "unit": "%"}, {"measurement": "remaining activity at 1 µM", "setting": "PKBb; PKBb, 1 μM", "result": 123, "unit": "%"}, {"measurement": "remaining activity at 100 µM", "setting": "PKBb; PKBb, 100 μM", "result": 15, "unit": "%"}, {"measurement": "remaining activity at 1 µM", "setting": "SmMLCK", "result": 98, "unit": "%"}, {"measurement": "remaining activity at 100 µM", "setting": "SmMLCK", "result": 41, "unit": "%"}, {"measurement": "remaining activity at 1 µM", "setting": "TGFBR1; TGFBR1, 1 μM", "result": 105, "unit": "%"}, {"measurement": "remaining activity at 100 µM", "setting": "TGFBR1; TGFBR1, 100 μM", "result": 118, "unit": "%"}, {"measurement": "remaining activity at 1 µM", "setting": "p38d MAPK; p38d MAPK, 1 μM", "result": 116, "unit": "%"}, {"measurement": "remaining activity at 100 µM", "setting": "p38d MAPK; p38d MAPK, 100 μM", "result": 95, "unit": "%"}]}
{"smiles": "COc1ccc2sc(-c3cncc(NC(C)=O)c3)nc2c1", "note": "[PST-001, N-(5-(5-Methoxybenzo[d]thiazol-2-yl)pyridin-3-yl)acetamide]", "values": [{"measurement": "remaining activity at 1 µM", "setting": "ABL", "result": 97, "unit": "%"}, {"measurement": "remaining activity at 100 µM", "setting": "ABL", "result": 99, "unit": "%"}, {"measurement": "remaining activity at 1 µM", "setting": "AMPK (hum)", "result": 99, "unit": "%"}, {"measurement": "remaining activity at 100 µM", "setting": "AMPK (hum)", "result": 69, "unit": "%"}, {"measurement": "Effect on Aurora A", "setting": "Aurora A; in words", "result": "moderately activated"}, {"measurement": "remaining activity at 1 µM", "setting": "Aurora A", "result": 133, "unit": "%"}, {"measurement": "remaining activity at 100 µM", "setting": "Aurora A", "result": 136, "unit": "%"}, {"measurement": "remaining activity at 1 µM", "setting": "CDK9-Cyclin T1", "result": 122, "unit": "%"}, {"measurement": "remaining activity at 100 µM", "setting": "CDK9-Cyclin T1", "result": 120, "unit": "%"}, {"measurement": "remaining activity at 1 µM", "setting": "MLK1", "result": 108, "unit": "%"}, {"measurement": "remaining activity at 100 µM", "setting": "MLK1", "result": 96, "unit": "%"}, {"measurement": "remaining activity at 1 µM", "setting": "NEK6", "result": 112, "unit": "%"}, {"measurement": "remaining activity at 100 µM", "setting": "NEK6", "result": 113, "unit": "%"}, {"measurement": "remaining activity at 1 µM", "setting": "PKBb", "result": 112, "unit": "%"}, {"measurement": "remaining activity at 100 µM", "setting": "PKBb", "result": 98, "unit": "%"}, {"measurement": "remaining activity at 1 µM", "setting": "SmMLCK", "result": 118, "unit": "%"}, {"measurement": "remaining activity at 100 µM", "setting": "SmMLCK", "result": 99, "unit": "%"}, {"measurement": "remaining activity at 1 µM", "setting": "TGFBR1", "result": 112, "unit": "%"}, {"measurement": "remaining activity at 100 µM", "setting": "TGFBR1", "result": 129, "unit": "%"}, {"measurement": "remaining activity at 1 µM", "setting": "p38d MAPK", "result": 115, "unit": "%"}, {"measurement": "remaining activity at 100 µM", "setting": "p38d MAPK", "result": 112, "unit": "%"}]}
